These results are taken from ChEMBL document CHEMBL5052842, “Pharmaceutical compounds and their use as inhibitors of ubiquitin specific protease 19 (usp19)” (2020).

Bounds are passed on as bounds.

The assay addresses T1, Ubiquitin carboxyl-terminal hydrolase 19 (Homo sapiens, UniProt O94966).
T1 sequence (O94966 whole entry): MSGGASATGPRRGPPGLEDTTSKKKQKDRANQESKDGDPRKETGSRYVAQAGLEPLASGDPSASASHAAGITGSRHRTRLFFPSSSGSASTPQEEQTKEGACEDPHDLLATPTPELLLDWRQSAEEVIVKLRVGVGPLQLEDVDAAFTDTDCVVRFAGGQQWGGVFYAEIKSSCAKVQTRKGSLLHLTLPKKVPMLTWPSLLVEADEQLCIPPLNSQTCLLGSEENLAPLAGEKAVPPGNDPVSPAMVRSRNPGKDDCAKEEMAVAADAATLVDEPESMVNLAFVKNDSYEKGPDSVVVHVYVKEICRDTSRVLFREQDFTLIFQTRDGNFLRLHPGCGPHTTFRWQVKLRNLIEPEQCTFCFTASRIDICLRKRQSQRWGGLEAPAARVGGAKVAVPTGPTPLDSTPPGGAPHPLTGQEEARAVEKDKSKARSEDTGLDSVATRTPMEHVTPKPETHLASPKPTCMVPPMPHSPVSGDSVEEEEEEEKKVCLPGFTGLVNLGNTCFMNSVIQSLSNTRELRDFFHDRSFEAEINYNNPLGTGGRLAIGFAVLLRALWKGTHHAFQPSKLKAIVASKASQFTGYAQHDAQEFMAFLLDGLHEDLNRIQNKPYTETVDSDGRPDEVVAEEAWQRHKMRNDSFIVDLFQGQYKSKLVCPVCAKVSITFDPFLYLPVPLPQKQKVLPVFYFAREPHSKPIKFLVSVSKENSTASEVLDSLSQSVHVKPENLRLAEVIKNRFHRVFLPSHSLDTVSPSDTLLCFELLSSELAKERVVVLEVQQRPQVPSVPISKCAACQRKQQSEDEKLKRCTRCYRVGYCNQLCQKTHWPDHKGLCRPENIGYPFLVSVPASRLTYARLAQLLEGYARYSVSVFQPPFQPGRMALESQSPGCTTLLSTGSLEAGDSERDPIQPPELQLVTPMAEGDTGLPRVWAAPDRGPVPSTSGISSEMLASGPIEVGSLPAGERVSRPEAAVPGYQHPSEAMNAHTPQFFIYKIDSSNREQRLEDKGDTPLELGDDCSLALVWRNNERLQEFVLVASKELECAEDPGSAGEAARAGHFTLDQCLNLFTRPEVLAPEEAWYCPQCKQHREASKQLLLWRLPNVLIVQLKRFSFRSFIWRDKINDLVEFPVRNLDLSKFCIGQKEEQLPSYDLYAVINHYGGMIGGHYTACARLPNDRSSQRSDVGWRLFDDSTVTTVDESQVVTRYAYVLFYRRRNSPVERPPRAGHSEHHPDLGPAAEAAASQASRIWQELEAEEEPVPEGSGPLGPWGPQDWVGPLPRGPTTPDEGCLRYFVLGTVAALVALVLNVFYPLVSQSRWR
Description: Inhibition of C-terminal His6-tagged recombinant human USP19 using iso-peptide ubiquitin-Lys-TAMRA as substrate incubated for 30 mins and measured after 90 mins by fluorescent polarization assay.

In the case of `C[C@@]1(c2ccccc2)CNCCN1C(=O)N1CC[C@@](O)(Cn2cnc(-c3ccccc3)cc2=O)C2(CCCC2)C1`, the IC50 is under 500 nM. For `O=C(N1CC[C@@](O)(Cn2cnc(-c3ccccc3)cc2=O)C2(CCOCC2)C1)N1CCNC[C@H]1c1ccccc1`, the IC50 was under 500 nM.

As to `O=C(N1CCC(O)(Cn2cnc(-c3ccccc3)cc2=O)C2(CCCCC2)C1)N1CCNC[C@H]1c1ccccc1` (stereo partly specified), the IC50 is under 500 nM. For `COc1ccccc1-c1cc(=O)n(C[C@]2(O)CCN(C(=O)N3CCNC[C@H]3c3cccc(F)c3)CC23CCCC3)cn1`, the IC50 was under 500 nM.

For `O=C(N1CC[C@@](O)(Cn2cnc(N3CCCC3)cc2=O)C2(CCCC2)C1)N1CCOC[C@H]1c1ccccc1`, the IC50 was under 500 nM. In the case of `O=C(NCc1ccco1)N1CC[C@@](O)(Cn2cnc(-c3ccccc3)cc2=O)C2(CCCC2)C1` it was under 500 nM; in that of `O=C(N1CC[C@@](O)(Cn2cnc(-c3cccc(F)c3)cc2=O)C2(CCCC2)C1)N1CCNC[C@H]1c1cccc(F)c1`, under 500 nM; in that of `O=C(N1CC[C@@](O)(Cn2cnc(N3CCC(F)(F)C3)cc2=O)C2(CCCC2)C1)N1CCNC[C@H]1c1ccccc1`, under 500 nM. For `O=C1CN(C(=O)N2CC[C@@](O)(Cn3cnc(-c4ccccc4)cc3=O)C3(CCCC3)C2)[C@H](c2ccccc2)CN1` the value was under 500 nM; for `O=C(N1CC[C@@](O)(Cn2cnc(-c3ccccc3)cc2=O)C2(CCCC2)C1)N1CCNC[C@H]1c1ccc(F)cc1F`, under 500 nM. Regarding `O=C(N1CC[C@@](O)(Cn2cnc(-c3ccccc3)cc2=O)C2(CCCC2)C1)N1CCOC[C@H]1c1ccc(F)cc1`, the IC50 is under 500 nM. As to `C[C@H](CC1CCCCC1)C(=O)N1CCC(O)(Cn2cnc3ccc(F)cc3c2=O)C2(CCCC2)C1` (stereo partly specified), the IC50 was under 500 nM. As to `O=C(N1CC[C@@](O)(Cn2cnc(-c3ccccc3)cc2=O)C2(CCCC2)C1)N1CCS(=O)(=O)C[C@H]1c1cc(F)ccc1F`, the IC50 was under 500 nM.

On to `O=C(NCc1ccc(F)c(F)c1)N1CC[C@@](O)(Cn2cnc(-c3ccccc3)cc2=O)C2(CCCC2)C1`, for which the IC50 was under 500 nM. As for `C[C@H](CC1CCCCC1)C(=O)N1CCC(O)(Cn2cnc3c(cnn3-c3ccccc3)c2=O)C2(CCCC2)C1` (stereo partly specified), the IC50 is under 500 nM. For `O=C(N1CC[C@@](O)(Cn2cnc(-c3ccccc3F)cc2=O)C2(CCCC2)C1)N1CCNC[C@H]1c1ccccc1` the value was under 500 nM.

In the case of `COc1ccc(F)cc1-c1cc(=O)n(C[C@]2(O)CCN(C(=O)N3CCNC[C@H]3c3ccccc3)CC23CCCC3)cn1`, the IC50 was under 500 nM. As for `O=C(N1CC[C@@](O)(Cn2cnc(C3CC3)cc2=O)C2(CCCC2)C1)N1CCNC[C@H]1c1cc(F)ccc1F`, the IC50 was under 500 nM.

For `COc1ccc(-c2cc(=O)n(C[C@]3(O)CCN(C(=O)N4CCNC[C@H]4c4ccccc4)CC34CCCC4)cn2)cc1`, the IC50 was under 500 nM. On to `Cc1cccc(F)c1-c1cc(=O)n(C[C@]2(O)CCN(C(=O)N3CCNC[C@H]3c3ccccc3)CC23CCCC3)cn1`, for which the IC50 was under 500 nM.

`O=C(NCc1cccs1)N1CC[C@@](O)(Cn2cnc(-c3ccccc3)cc2=O)C2(CCCC2)C1`: the IC50 was under 500 nM. For the compound `O=C(N1CC[C@@](O)(Cn2cnc(-c3ccccc3F)cc2=O)C2(CCCC2)C1)N1CCNC[C@H]1c1cc(F)cc(F)c1`, the IC50 is under 500 nM.

In the case of `O=C(N1CC[C@@](O)(Cn2cnc(-c3ccccc3)cc2=O)C2(CCCC2)C1)N1CCN(CC(F)(F)F)C[C@H]1c1ccccc1`, the IC50 is under 500 nM.

Regarding `Cc1cc(=O)n(C[C@]2(O)CCN(C(=O)N3CCNC[C@H]3c3ccccc3)CC23CCCC3)cn1`, the IC50 was under 500 nM. For the compound `C[C@H](CC1CCCCC1)C(=O)N1CCC(O)(Cn2cc(S(C)(=O)=O)c(Cl)cc2=O)C2(CCCC2)C1` (stereo partly specified), the IC50 is under 500 nM. In the case of `O=C(N1CC[C@@](O)(Cn2cnc(-c3cccc(F)c3)cc2=O)C2(CCCC2)C1)N1CCNC[C@H]1c1ccccc1` it was under 500 nM; in that of `C[C@H](CC1CCCCC1)C(=O)N1CCC(O)(Cn2cc(C(=O)N3CCNCC3)ncc2=O)C2(CCCC2)C1` (stereo partly specified), under 500 nM. Regarding `O=C(N1CC[C@@](O)(Cn2cnc(-c3ccccc3C(F)(F)F)cc2=O)C2(CCCC2)C1)N1CCNC[C@H]1c1ccccc1`, the IC50 is under 500 nM. For `O=C(N1CC[C@@](O)(Cn2cnc(-c3ccccc3)cc2=O)C2(CCCC2)C1)N1CCNCC1c1cccs1` (stereo partly specified) the value was under 500 nM. On to `C[C@H](CC1CCCCC1)C(=O)N1CCC(O)(Cn2cc(S(C)(=N)=O)c(Cl)cc2=O)C2(CCCC2)C1` (stereo partly specified), for which the IC50 is under 500 nM.

Consider `CSc1ncc2c(=O)n(CC3(O)CCN(C(=O)[C@H](C)CC(F)(F)F)CC34CCCC4)ccc2n1` (stereo partly specified), for which the IC50 was under 500 nM. On to `Cn1ncc2c(=O)n(CC3(O)CCN(C(=O)N4CCNC[C@H]4c4ccccc4)CC34CCCC4)cnc21` (stereo partly specified), for which the IC50 was under 500 nM. For `COc1ccccc1-c1cc(=O)n(C[C@]2(O)CCN(C(=O)N3CCNC[C@H]3c3cc(F)ccc3F)CC23CCCC3)cn1` the value was under 500 nM; for `COc1cc(=O)n(C[C@]2(O)CCN(C(=O)N3CCNC[C@H]3c3ccccc3)CC23CCCC3)cn1`, under 500 nM; for `O=C(N[C@H](c1ccccc1)C(F)(F)F)N1CC[C@@](O)(Cn2ccc(-c3ccccc3)cc2=O)C2(CCCC2)C1`, under 500 nM.

In the case of `O=C(N1CCC(O)(Cn2cnc3c(cnn3C3CC3)c2=O)C2(CCCC2)C1)N1CCNC[C@H]1c1ccccc1` (stereo partly specified), the IC50 was under 500 nM. For `CN(C)C(=O)c1cn(CC2(O)CCN(C(=O)N3CCC(C(F)(F)F)C3)CC23CCCC3)c(=O)cc1-c1ccccc1` (stereo unspecified) the value was under 500 nM; for `Cn1cc(-c2cc(=O)n(C[C@]3(O)CCN(C(=O)N4CCOC[C@H]4c4ccccc4)CC34CCCC4)cn2)cn1`, under 500 nM; for `O=C(N1CCC(O)(Cn2cnc3ccc(F)cc3c2=O)C2(CCCC2)C1)N1CCOC[C@H]1c1ccccc1` (stereo partly specified), under 500 nM.

For `CN(C)C(=O)c1cn(C[C@]2(O)CCN(C(=O)N3CCOC[C@H]3c3ccccc3)CC2(C)C)c(=O)cc1-c1ccccc1`, the IC50 was under 500 nM. For `Cn1cc(-c2cc(=O)n(C[C@]3(O)CCN(C(=O)N4CCOC[C@H]4c4ccc(F)cc4)CC34CCCC4)cn2)cn1` the value was under 500 nM. On to `O=C(NCc1cccc(F)c1)N1CC[C@@](O)(Cn2cnc(-c3ccccc3)cc2=O)C2(CCCC2)C1`, for which the IC50 was under 500 nM.

Regarding `C[S+]([O-])c1cn(CC2(O)CCN(C(=O)N3CCNC[C@H]3c3ccccc3)CC23CCCC3)c(=O)cc1-c1ccccc1` (stereo partly specified), the IC50 was under 500 nM. As to `O=C1CN(c2ccccc2)CCN1CC1(O)CCN(C(=O)NCc2ccccc2)CC12CCCC2` (stereo unspecified), the IC50 was under 500 nM. On to `C[C@H](CC1CCCCC1)C(=O)N1CCC(O)(Cn2cnc3cc(F)c(Cl)cc3c2=O)C2(CCCC2)C1` (stereo partly specified), for which the IC50 is under 500 nM.

`CCn1ncc2c(=O)n(CC3(O)CCN(C(=O)[C@H](C)CC4CCCCC4)CC34CCCC4)cnc21` (stereo partly specified): the IC50 was under 500 nM. For the compound `O=C(N1CC[C@@](O)(Cn2cnc(N3CCC(F)(F)CC3)cc2=O)C2(CCCC2)C1)N1CCNC[C@H]1c1ccccc1`, the IC50 is under 500 nM. Regarding `C[C@H](CC1CCCCC1)C(=O)N1CCC(O)(Cn2cc(Br)ncc2=O)C2(CCCC2)C1` (stereo partly specified), the IC50 is under 500 nM. As for `O=C(NCc1c(F)cccc1F)N1CC[C@@](O)(Cn2cnc(-c3ccccc3)cc2=O)C2(CCCC2)C1`, the IC50 was under 500 nM. For the compound `Cc1ccc(-c2cc(=O)n(C[C@]3(O)CCN(C(=O)N4CCNC[C@H]4c4ccccc4)CC34CCCC4)cn2)cc1`, the IC50 was under 500 nM.

On to `Cn1nc(C(F)(F)F)cc1-c1cc(=O)n(C[C@]2(O)CCN(C(=O)N3CCNC[C@H]3c3ccccc3)CC23CCCC3)cn1`, for which the IC50 is under 500 nM.
